Reference: PMC11973094, “Formononetin and mizoribine inhibit Porcine Reproductive and Respiratory Syndrome Virus replication in vitro” (Frontiers in Nutrition, 2025)

Columns and labels:
PRRSV GSWW-15 strain = test: Viral titer and gene expression of GSWW-15 strain in PAM cells; format: cell-based, Porcine Reproductive and Respiratory Syndrome Virus; conditions: 36 h
Description: (§1) Viral solutions were diluted in a 10-fold gradient. Aliquots of solutions containing varying concentrations of the virus (100 μL each) and DMEM with 2% FBS (100 μL) were added to each well. Add 100 μL of 2% FBS DMEM (without PRRSV) to the control wells. The plates were incubated for 4 days at 37°C in a humidified atmosphere with 5% CO2, after which the virus TCID50 values were calculated using the Reed and Muench formula. To evaluate PRRSV gene expression, we employed the relative quantitative Reverse Transcription Quantitative Polymerase Chain Reaction (qRT-PCR) technique. The resultant data were processed using Design & Analysis Software (Thermo, version 2.6.0) and normalized based on the 2^−ΔΔCt method. For the determination of viral copy numbers, absolute quantitative qRT-PCR was utilized, with sample normalization achieved by quantifying plasmid concentrations prior to the detection process. The specific methods are as described in section 2.4 of our previous paper ([18]). The upstream and downstream primers were: PRRSV 5’-[…]’ and 5’-[…]-3′; Marc-145-GAPDH 5’-[…]-3′ and 5’-[…]-3′; PAM-GAPDH 5’-TCTGGCAAAGTGGACATT-3′ and 5’-[…]-3′.
(§2) Figure 4 Inhibitory effects of FMN and MZR on GSWW-18 and GSWW-15 Strains. (A,C) Changes in PRRSV viral titers in PAM cells incubated with 20 μM of FMN or MZR for 36 h with the GSWW-18 strain. (B,D) Changes in PRRSV viral genome in PAM cells after 36 h of incubation with 20 μM of FMN or MZR with the GSWW-15 strain. The black dots in the figure represent the raw data from each independent experiment. p-values were calculated using one-way ANOVA with Dunnett’s multiple-comparison test. The p-value less than 0.03 was considered statistically significant. Error bars represent the mean ± SD.

PRRSV VR-2332 strain [1] = test: Antiviral EC50 against PRRSV VR-2332 in Marc-145 cells (PRRSV genomic expression); format: cell-based; conditions: Porcine reproductive and respiratory syndrome virus, MARC145, VR-2332 strain
Description: as §1
(§3) Cells were treated in a 96-well plate using DMEM supplemented with 8% FBS. After achieving a monolayer formation, the cells were treated with multiple concentrations of the test compound, which were diluted in DMEM containing 2% FBS and added to six replicate wells. As a control, a blank solution consisting of 0.5% DMSO in DMEM was employed. The cells treated with the compound were incubated at 37°C in a humidified atmosphere with 5% CO2 for 48 or 72 h. Subsequently, the half-maximal cytotoxic concentrations (CC50) was measured following the protocol described in section 2.2 of our previous work ([18]). For the determination of the half-maximal effective concentration (EC50), each concentration was tested in triplicate wells, using 0.4% DMSO as a blank control. EC50 was determined by assessing PRRSV genomic expression levels after three freeze–thaw cycles, and results were plotted using GraphPad Prism 8.

PRRSV VR-2332 strain [2] = test: Indirect immunofluorescence assay (IFA) of VR-2332 in PAM cells; format: cell-based, Porcine Reproductive and Respiratory Syndrome Virus; conditions: within the safety range
Description: The following antibodies were used for IFA: Mouse Anti-SR30 (Rtilab, SR30-A) and Goat Anti-Mouse FITC (Bioss, bs-0368G-FITC). After virus inoculation, cells were fixed with 80% cold acetone according to previous experimental conditions for IFA ([18]). A Leica DMI6000 microscope was used for observation.
(§4) Figure 2 Evaluating the cytotoxicity of FMN and MZR on Marc-145 and PAM Cells. (A,B) CC50 values for FMN in Marc-145 cells at 48 and 72 h, determined via the CCK-8 assay. (C,D) CC50 of FMN in PAM cells assessed at 48 and 72 h. (E,F) CC50 values for MZR in Marc-145 cells at 48 and 72 h. (G,H) CC50 for MZR in PAM cells, also measured at 48 and 72 h. (I) The antiviral activity of FMN against the PRRSV VR-2332 strain, evaluated via IFA. (J) Antiviral effectiveness of MZR against the VR-2332 strain, assessed using IFA. Control samples were treated with a matching volume of 0.4% DMSO in DMEM. Black dots within the figure symbolize individual data points from each independent experiment. IFA images are from three experimental replicates.

PRRSV GSWW-18 strain = test: Viral titer and gene expression of GSWW-18 strain in PAM cells; format: cell-based, Porcine Reproductive and Respiratory Syndrome Virus; conditions: 36 h
Description: as §1, §2

PRRSV VR-2332 strain [3] = test: Time-of-addition assay, Marc-145 cells infected with VR-2332 (MOI = 1); format: cell-based, Porcine Reproductive and Respiratory Syndrome Virus
Excerpt: The assay commenced with seeding cells into a 96-well plate, followed by their cultivation in DMEM supplemented with 8% FBS. Upon achieving a monolayer, the cells were infected with the VR-2332 strain of PRRSV at a multiplicity of infection (MOI) of 1. One hour after infection, the viral inoculum was discarded, and the cells were cleansed with ice-cold PBS. DMSO or various concentrations of FMN or MZR were then introduced to the culture at different time intervals, as depicted in Figure 1A. Thirty-six hours post-infection, the expression levels of PRRSV RNA were quantified using previously described methods.
Figure 1 Time-of-addition experiment with FMN or MZR. (A) This schematic diagram illustrates the classical experimental protocol for administering drugs at different time points. The experiment began with Marc-145 cells uniformly infected with VR-2332 (MOI = 1) at 0 h, followed by adding varying concentrations of FMN or MZR at specific times. (B,C) FMN or MZR was introduced at −4, 0, 2, 4, 8, and 16 h to examine their impact on various stages of PRRSV replication. All samples were collected for analysis 36 h post-infection. The colors of the bars in the figure correspond to the time points as detailed in (A). Each symbol represents an independent biological replicate. The p-values are indicated, with ‘ns’ denoting p > 0.1234. These values were calculated using one-way ANOVA with Dunnett’s multiple-comparison test, and a p-value less than 0.0332 was considered statistically significant.

[4] = Cytotoxicity (CC50) by CCK-8 assay in PAM cells; format: cell-based, Porcine; conditions: pig
Description: as §3, with “For the determination of the half-maximal effective concentration (EC50), each concentration was tested in triplicate wells, using 0.4% DMSO as a blank control.” left out
as §4

PAM cells = test: Cytotoxicity (CC50) by CCK-8 assay in PAM cells; format: cell-based, Porcine
Description: as §3, with “For the determination of the half-maximal effective concentration (EC50), each concentration was tested in triplicate wells, using 0.4% DMSO as a blank control.” left out
as §4

Marc-145 cells = test: Cytotoxicity (CC50) by CCK-8 assay in Marc-145 cells; format: cell-based; conditions: for Non-cytotoxic concentrations: Marc-145 and PAM cells, treatment durations shorter than 48 h
Description: as §3, with “The cells treated with the compound were incubated at 37°C in a humidified atmosphere with 5% CO2 for 48 or 72 h.” left out, “For the determination of the half-maximal effective concentration (EC50), each concentration was tested in triplicate wells, using 0.4% DMSO as a blank control.” left out
as §4

PRRSV VR-2332 strain [5] = test: Viral titer (TCID50) and viral genome (qRT-PCR) of VR-2332 after 36-h incubation with the compounds; format: cell-based, Porcine Reproductive and Respiratory Syndrome Virus; conditions: for Correlation of concentration with relative expression of the PRRSV genome / Correlation of concentration with viral titer: 36-h incubation, linear fit slope m negative; for Concentrations effectively suppressing viral replication: dose-dependent inhibition
Description: as §1
Figure 3 Assessing the antiviral potency of FMN and MZR on PRRSV. This figure delineates the evaluation of FMN and MZR at varying concentrations for their antiviral effects on the VR-2332 strain. (A,C) Display the EC50 of FMN in PAM and Marc-145 cells, respectively. (B,D) Illustrate the EC50 of MZR in PAM and Marc-145 cells. (E,F) Show alterations in the viral titers of the VR-2332 strain post 36-h incubation with distinct concentrations of FMN or MZR. (G,H) Represent the viral genome changes under similar conditions. Each point in the figure corresponds to raw data from individual experiments. Linear fit slopes are marked in red. Error bars indicate the mean ± SD. TEXT PRINTED IN THE PICTURE: (A) FMN: PAM: EC50: 8.716; PAM: EC90: 223.542 | (B) MZR: PAM: EC50: 8.274; PAM: EC90: 19.945 | (C) FMN: Marc-145: EC50: 16.863; Marc-145: EC90: 104.819 | (D) MZR: Marc-145: EC50: 22.335; Marc-145: EC90: 63.856

PRRSV VR-2332 strain [6] = test: Antiviral EC50 against PRRSV VR-2332 in PAM cells (PRRSV genomic expression); format: cell-based; conditions: Porcine reproductive and respiratory syndrome virus
Description: as §1, §3

[7] = added 16 h after infection, P > 0.1234
[8] = added in the initial stages post-infection, collected 36 h post-infection
[9] = lower concentrations added 8 h post-infection, P > 0.1234

Structure (SMILES): COc1ccc(-c2coc3cc(O)ccc3c2=O)cc1 [FMN, 7-hydroxy-3-(4-methoxyphenyl)-4H-chromen-4-one]
- Gene expression levels (PRRSV GSWW-15 strain): dose-dependent inverse relationship
- Viral titers (PRRSV GSWW-15 strain): dose-dependent reduction
- EC50 (PRRSV VR-2332 strain [1]): ~16.9 µM
- EC50 (PRRSV VR-2332 strain [1]; Figure 3, unit inferred): 16.9 µM
- EC90 (PRRSV VR-2332 strain [1]; Figure 3, unit inferred): 105 µM
- Antiviral activity by IFA (PRRSV VR-2332 strain [2]): antiviral efficacy
- Gene expression levels (PRRSV GSWW-18 strain): dose-dependent inverse relationship
- Viral titers (PRRSV GSWW-18 strain): dose-dependent reduction
- Effect on PRRSV replication (PRRSV RNA) (PRRSV VR-2332 strain [3]; [7]): entirely ineffective
- Effect on PRRSV replication (PRRSV RNA) (PRRSV VR-2332 strain [3]; [8]): pronounced antiviral activity
- Effect on PRRSV replication (PRRSV RNA) (PRRSV VR-2332 strain [3]; [9]): did not significantly impede PRRSV replication
- CC50 at 72 h ([4]; 72 h, printed in the picture of Figure 2D, no unit): 52 µM
- CC50 at 72 h ([4]; 72 h exposure): 52 µM
- Cytotoxicity (PAM cells; 48 h): non-toxic
- Non-cytotoxic concentrations (Marc-145 cells): below 100 μM
- Correlation of concentration with relative expression of the PRRSV genome (PRRSV VR-2332 strain [5]): negatively correlated
- Correlation of concentration with viral titer (PRRSV VR-2332 strain [5]): negatively correlated
- Concentrations effectively suppressing viral replication (PRRSV VR-2332 strain [5]): above 20 μM
- EC50 (PRRSV VR-2332 strain [6]): ~8.72 µM
- EC50 (PRRSV VR-2332 strain [6]; Figure 3, unit inferred): 8.72 µM
- EC90 (PRRSV VR-2332 strain [6]; Figure 3, unit inferred): 224 µM

Structure (SMILES): NC(=O)c1ncn([C@@H]2O[C@H](CO)[C@@H](O)[C@H]2O)c1O [MZR, 1-[(2R,3R,4S,5R)-3,4-dihydroxy-5-(hydroxymethyl)oxolan-2-yl]-5-hydroxy-1H-imidazole-4-carboxamide, reference compound]
- Gene expression levels (PRRSV GSWW-15 strain): dose-dependent inverse relationship
- Viral titers (PRRSV GSWW-15 strain): dose-dependent reduction
- EC50 (PRRSV VR-2332 strain [1]): ~22.3 µM
- EC50 (PRRSV VR-2332 strain [1]; Figure 3, unit inferred): 22.3 µM
- EC90 (PRRSV VR-2332 strain [1]; Figure 3, unit inferred): 63.9 µM
- Antiviral activity by IFA (PRRSV VR-2332 strain [2]): antiviral efficacy
- Gene expression levels (PRRSV GSWW-18 strain): dose-dependent inverse relationship
- Viral titers (PRRSV GSWW-18 strain): dose-dependent reduction
- Effect on PRRSV replication (PRRSV RNA) (PRRSV VR-2332 strain [3]; [7]): entirely ineffective
- Effect on PRRSV replication (PRRSV RNA) (PRRSV VR-2332 strain [3]; [8]): pronounced antiviral activity
- Effect on PRRSV replication (PRRSV RNA) (PRRSV VR-2332 strain [3]; [9]): did not significantly impede PRRSV replication
- Cytotoxicity (PAM cells; treatment up to 72 h): negligible cytotoxicity
- Non-cytotoxic concentrations (Marc-145 cells): below 100 μM
- Cytotoxicity (Marc-145 cells; Marc-145 cells, various concentrations, 48 and 72 h): minimal cytotoxicity
- Correlation of concentration with relative expression of the PRRSV genome (PRRSV VR-2332 strain [5]): negatively correlated
- Correlation of concentration with viral titer (PRRSV VR-2332 strain [5]): negatively correlated
- Concentrations effectively suppressing viral replication (PRRSV VR-2332 strain [5]): above 20 μM
- EC50 (PRRSV VR-2332 strain [6]): ~8.27 µM
- EC50 (PRRSV VR-2332 strain [6]; Figure 3, unit inferred): 8.27 µM
- EC90 (PRRSV VR-2332 strain [6]; Figure 3, unit inferred): 19.9 µM
